# From patent publication US9243037B2, “Gramicidin a mutants that function as antibiotics with improved solubility and reduced toxicity” (Trustees of Boston College, priority 2011, dated 2016)
# “Also recorded” adds a separate entry of the source.
# Legend:
# [1] = tested on: human red blood cells (hRBCs); assay: Haemoglobin release from human red blood cells; assay type: cell-based; conditions: for HC50 (50% haemoglobin leakage relative to 1% TritonX-100): red cells of human
# Procedure: Fresh human red blood cells (hRBCs) were centrifuged at 3500 rpm and washed with PBS buffer until the supernatant was clear. The hRBCs were then resuspended and diluted to a final concentration of 1% (v/v) in PBS and used immediately. 15 μL of serial dilution (2-fold) of peptides in DMSO or DMSO alone as a negative control were added to 1.5 mL of hRBCs in PBS. The resulting mixture was gently shaken to mix well and incubated at 37° C. for 1 hr, followed by centrifugation at 3500 rpm for 10 min using tabletop centrifuge. Aliquots (50 μL) of the supernatant (in triplicates) were transferred into a sterile 96-well plate containing 50 μL of H2O in each well. Release of hemoglobin was monitored at 415 nm using a microtiter plate reader. Percentage hemolysis was calculated using percentage hemolysis=100·(A415, peptide-A415,DMSO)/(A415, complete hemolysis-A415, DMSO), where complete hemolysis is achieved by mixing hRBCs with 1% TritonX-100.
# [2] = tested on: human red blood cells (hRBCs); assay: K+ leakage from hRBCs (flame atomic emission); assay type: cell-based
# Procedure: The rest of supernatant (1.2 mL) from each sample prepared as described in the hemoglobin leakage assay was transferred into a new sterile eppendorf tube and subject to the K+ concentration measurement using a flame-atomic emission spectrometer (λem=766.5 nm, Perkin Elmer Atomic absorption Spectrometer 3100, acetylene/air flame). Three readings were taken for each sample and averaged as final results. The fraction of K+ leakage from hRBCs was calculated as percentage K+ leaked=100·(I776.5,peptide−I776.5,DMSO)/(I776.5,complete lysis−I776.5,DMSO).
# [3] = physchem; assay type: physicochemical
# Procedure: Peptide solubility in 10 mM HEPES buffer with 1% DMSO was measured by monitoring tryptophan absorbance. A concentrated (6.0-8.0 mM) peptide stock solution in DMSO was diluted 100 times (5 μL of the stock into 500 jtl of 10 mM HEPES buffer, pH 7.0). The mixture was sonicated for 30 mins and then subject to centrifugation (14,000 rpm, 10 mins) to remove possible precipitate. The supernatant (400 μL) was transferred to a quartz cuvette and the peptide concentration was determined by tryptophan absorbance at 280 nm (ε=22760 M−1 cm-1). The UV/Vis spectra of the supernatant can be seen in FIG. 1 and FIG. 5.
# [4] = Peptide binding onto membranes (Trp fluorescence)
# [5] = Peptide binding onto membranes (Trp fluorescence); conditions: negatively charged POPC/POPG vesicles; in words
# [6] = tested on: Bacillus subtilis (ATCC 663); conditions: for MICs B. Subtilius: ATCC 663; for MIC relative to wild-type Gramicidin A: B. subtilis
# [7] = tested on: Staphylococcus aureus (ATCC 6538); conditions: for MICs S. Aureus: ATCC 6538; for MIC relative to wild-type Gramicidin A: S. Aureus
# [8] = tested on: Streptococcus pyogenes (ATCC 19615); conditions: for MICs S. Pyogenes: ATCC 19615; for MIC relative to wild-type Gramicidin A: S. Pyogenes
# [9] = Trp absorbance @ 280 nm; 10 mM PBS, pH 7.0, 1% DMSO; values taken from ref; cited from earlier work
# [10] = K+ release from liposomes, lipid not specified; assay type: biochemical; conditions: in words
# Procedure: With the D-Lys residues incorporated towards the C-terminus, the gA peptide analogs described herein display amphipathic sequences. Since many amphipathic peptides are known to cause membrane damage through a detergent-like mechanism instead of forming specific channels,[19] it was further examined whether it is the case with the gA peptide analogs provided herein. Toward this end, the ion selectivity of gA-3, 4, and 5 was assessed by using liposomes encapsulating K+ and Tb3+ respectively. […] The wild type like channel structure of the D-Lys mutants is further supported by the fact that gA-5 and gA-WT share similar signatures in their circular dichroism spectra (FIG. 11). This exclusive leakage of monovalent cations presents a great advantage of the gA analog peptides described herein in comparison to the majority of AMPs, which often cause catastrophic membrane collapse to release all bacterial cellular content, leading to potential complications of over-stimulated immune response.
# The K+ leakage from liposomes was determined by a potassium ion selective electrode (K-ISE, Cole-Parmer, Vernon Hills, Ill.). The electrode was calibrated each day before experiments. A liposome solution in Buffer A (2 mL, 500 μM POPC or POPC/POPG⊃10 mM HEPES, 150 mM KCl, pH 7.0) was stirred at constant speed and peptide at various concentration (1 μL in DMSO) was added accumulatively. Three minutes after each peptide addition, the K+ concentration was measured and reported as the K-ISE potential. At the end of each experiment, gA-WT stock (1 μL, 1 mM) was added to induce 100% K+ leakage. The potential reported by the K-ISE was plotted against peptide concentration after the background noise (caused by DMSO addition) was subtracted and normalized to 0-100%.
# [11] = Tb3+ leakage from liposomes, lipid not specified; assay type: biochemical; conditions: at peptide concentrations causing complete K+ release; in words
Structure (SMILES),HC50 (50% haemoglobin leakage relative to 1% TritonX-100) [1],KC50 (50% K+ ion leakage relative to 1% TritonX-100) [2],"peptide concentration for 50% K+ ion leakage, fold greater than wild-type Gramicidin A [2]","water solubility, fold higher than wild-type Gramicidin A [3] [fold]","apparent dissociation constant (Kd) / binding ([4]; neutral POPC vesicles, in words)",apparent dissociation constant (Kd) / binding [5],MICs B. Subtilius [6] [µM],MIC relative to wild-type Gramicidin A [6],MICs S. Aureus [7] [µM],MIC relative to wild-type Gramicidin A [7],MICs S. Pyogenes [8] [µM],MIC relative to wild-type Gramicidin A [8],"Sat. Conc, Lys series [9] [µM]",haemoglobin leakage from hRBCs [1],reduced affinity to POPC vesicles [4] [folds],K+ release from LUVs [10],Tb3+ leakage from LUVs [11]
"CC(C)C[C@@H](NC(=O)[C@H](C)NC(=O)CNC(=O)[C@@H](NC=O)C(C)C)C(=O)N[C@@H](C)C(=O)N[C@@H](C(=O)N[C@H](C(=O)N[C@@H](C(=O)N[C@@H](Cc1c[nH]c2ccccc12)C(=O)N[C@H](CC(C)C)C(=O)N[C@@H](Cc1c[nH]c2ccccc12)C(=O)N[C@H](CC(C)C)C(=O)N[C@@H](Cc1c[nH]c2ccccc12)C(=O)N[C@H](CCCCN)C(=O)N[C@@H](Cc1c[nH]c2ccccc12)C(=O)NCCO)C(C)C)C(C)C)C(C)C (racemic) [gA-2, formyl-V-G-A-dL-A-dV-V-dV-W-dL-W-dL-W-dK-W-NHCH2CH2OH]",5~10 μM,0.01 µM,~100 fold,~200,apparent Kd values close to that of gA-WT,apparent Kd values close to that of gA-WT,5,equivalent to that of wild-type Gramicidin A,2.5,equivalent to that of wild-type Gramicidin A,0.16,equivalent to that of wild-type Gramicidin A,11,,,,
"CC(C)C[C@@H](NC(=O)[C@H](C)NC(=O)CNC(=O)[C@@H](NC=O)C(C)C)C(=O)N[C@@H](C)C(=O)N[C@@H](C(=O)N[C@H](C(=O)N[C@@H](C(=O)N[C@@H](Cc1c[nH]c2ccccc12)C(=O)N[C@H](CCCCN)C(=O)N[C@@H](Cc1c[nH]c2ccccc12)C(=O)N[C@H](CC(C)C)C(=O)N[C@@H](Cc1c[nH]c2ccccc12)C(=O)N[C@H](CCCCN)C(=O)N[C@@H](Cc1c[nH]c2ccccc12)C(=O)NCCO)C(C)C)C(C)C)C(C)C (racemic) [gA-3, formyl-V-G-A-dL-A-dV-V-dV-W-dK-W-dL-W-dK-W-NHCH2CH2OH]",>70 µM,5~10 μM,greater than 10^5 fold,~740,,comparable to that of gA-WT,5,~2 fold,5,~2 fold,0.32,~2 fold,38,not enough to cause 50% haemoglobin leakage,~70,potent activity in K+ release,essentially no Tb3+ leakage; also recorded: behave similarly to gA-5
